Measurements reported in patent publication US20230365566A1, “HETEROCYCLIC AMIDES AND THEIR USE FOR MODULATING SPLICING” (REMIX THERAPEUTICS INC., priority 2020, published 2023).

Assays:
Type in all cases: cell-based
[1] = test system: HTT mRNA alternative junction (AJ); experiment: Splicing RT-qPCR assay, increase of HTT alternative junction (AJ) mRNA; settings: A673 or K562 cells, 24 hours compound treatment, concentration having 50% response in AJ increase
Procedure: (§1) Compounds described herein were used to modulate RNA transcript abundance in cells. The expression of a target mRNA was measured by detecting the formation of an exon-exon junction in the canonical transcript (CJ). A compound mediated exon-inclusion event was detected by observing an increase in formation of a new junction with an alternative exon (AJ). Real-time qPCR assays were used to detect these splicing switches and interrogate the potency of various compounds towards different target genes. A high-throughput real time quantitative PCR (RT-qPCR) assay was developed to measure these two isoforms of the mRNA (CJ and AJ) for an exemplary gene, HTT, together with a control housekeeping gene, GAPDH or GUSB or PPIA, used for normalization. Briefly, the A673 or K562 cell line was treated with various compounds described herein (e.g., compounds of Formula (I)). After treatment, the levels of the HTT mRNA targets were determined from each sample of cell lysate by cDNA synthesis followed by qPCR.
(§2) The A673 cell line was cultured in DMEM with 10% FBS. Cells were diluted with full growth media and plated in a 96-well plate (15,000 cells in 100 ul media per well). The plate was incubated at 37° C. with 5% CO2 for 24 hours to allow cells to adhere. An 11-point 3-fold serial dilution of the compounds was made in DMSO then diluted in media in an intermediate plate. Compounds were transferred from the intermediate plate to the cell plate with the top dose at a final concentration of 10 uM in the well. Final DMSO concentration was kept at or below 0.25%. The cell plate was returned to the incubator at 37° C. with 5% CO2 for an additional 24 hours.
(§3) The K562 cell line was cultured in IMDM with 10% FBS. For K562, cells were diluted with full growth media and plated in either a 96-well plate (50,000 cells in 50 uL media per well) or a 384-well plate (8,000-40,000 cells in 45 uL media per well). An 11-point 3-fold serial dilution of the compounds were made in DMSO then diluted in media in an intermediate plate. Compound was transferred from the intermediate plate to the cell plate with the top dose at a final concentration of 10 uM in the well. Final DMSO concentration was kept at or below 0.25%. Final volume was 100 uL for 96-well plate and 50 uL for 384-well plate. The cell plate was then placed in an incubator at 37° C. with 5% CO2 for 24 hours.
(§4) The cells were then gently washed with 50 uL-100 uL cold PBS before proceeding to addition of lysis buffer. 30 uL-50 uL of room temperature lysis buffer with DNAse I (and optionally RNAsin) was added to each well. Cells were shaken/mixed thoroughly at room temperature for 5-10 minutes for lysis to take place and then 3 uL-5 uL of room temperature stop solution was added and wells were shaken/mixed again. After 2-5 minutes, the cell lysate plate was transferred to ice for RT-qPCR reaction setup. The lysates could also be frozen at −80° C. for later use.
(§5) In some cases, a direct lysis buffer was used. An appropriate volume of 3× lysis buffer (10 mM Tris, 150 mM NaCl, 1.5%-2.5% Igepal and 0.1-1 U/uL RNAsin, pH 7.4) was directly added to either K562 or A673 cells in media and mixed by pipetting 3 times. The plates were then incubated at room temperature with shaking/rocking for 20-50 minutes to allow for lysis to take place. After this time, the cell lysate plate was transferred to ice to set up for the RT-qPCR reactions. The lysates could also be frozen at −80° C. for later use.
(§6) To set up 10 uL RT-qPCR reactions, cell lysates were transferred to 384-well qPCR plates containing the master mix according to the table below. The plates were sealed, gently vortexed, and spun down before the run. The volumes were adjusted accordingly in some instances where the reaction was carried in 20 uL. The table below summarizes the components of the RT-qPCR reactions:
(§7) The RT-qPCR reaction was performed using a QuantStudio (ThermoFisher) under the following fast cycling conditions. […]

[2] = test system: HTT mRNA canonical junction (CJ); experiment: Splicing RT-qPCR assay, decrease of HTT canonical junction (CJ) mRNA; settings: A673 or K562 cells, 24 hours compound treatment, concentration having 50% response in CJ decrease
Procedure: as §1, §2, §3, §4, §5, §6, §7

HTT CJ mRNA = experiment: Gene panel canonical junction qPCR assay, HTT; settings: protocol of Example 42, read-out: HTT IC50 (decrease in CJ mRNA levels)
Procedure: as §1, §2, §3
(§8) The data analysis was performed by first determining the ACt vs the housekeeper gene. This ACt was then normalized against the DMSO control (AACt) and converted to RQ (relative quantification) using the 2^(−ΔΔCt) equation. The RQ were then converted to a percentage response by arbitrarily setting an assay window of 3.5 ΔCt for HTT-CJ and an assay window of 9 ΔCt for HTT-AJ. […] The percentage response was then fitted to the 4 parametric logistic equation to evaluate the concentration dependence of compound treatment. The increase in AJ mRNA is reported as AC50 (compound concentration having 50% response in AJ increase) while the decrease in CJ mRNA levels is reported as IC50 (compound concentration having 50% response in CJ decrease).
(§9) Additional studies were carried out for a larger panel of genes using the protocol provided above. The junction between flanking upstream and downstream exons was used to design canonical junction qPCR assays. At least one of the forward primer, reverse primer or the CY5-labeled 5′ nuclease probe (with 3′ quencher such as ZEN/Iowa Black FQ) was designed to overlap with the exon junction to capture the CJ mRNA transcript. BLAST was used to confirm the specificity of the probeset and parameters such as melting temperature, GC content, amplicon size, and primer dimer formation are considered during their design. Data for the decrease in CJ mRNA levels for three exemplary genes (HTT, SMN2, and Target C) analyzed in this panel are reported as IC50 (compound concentration having 50% response in CJ decrease).

SMN2 CJ mRNA = experiment: Gene panel canonical junction qPCR assay, SMN2; settings: protocol of Example 42, read-out: SMN2 IC50 (decrease in CJ mRNA levels)
Procedure: as §1, §2, §3, §8, §9

Target C CJ mRNA = experiment: Gene panel canonical junction qPCR assay, Target C; settings: protocol of Example 42, read-out: Target C IC50 (decrease in CJ mRNA levels)
Procedure: as §1, §2, §3, §8, §9

IC50 (HTT CJ mRNA)	IC50 (SMN2 CJ mRNA)	IC50 (Target C CJ mRNA)	SMILES	AC50 [1]	AC50 [2]
1000 to 10000 nM	< 100 nM	1000 to 10000 nM	Cc1cn2cc(NC(=O)c3ccc(N4CCN(C)CC4)c4cc(C)oc34)cc(F)c2n1 [Compound 189, N-[8-fluoro-2-methylimidazo [1,2-a]pyridin-6-yl]-2-methyl-4-(4-methylpiperazin-1-yl)-1-benzofuran-7-carboxamide]	1000 to 10000 nM	1000 to 10000 nM
1000 to 10000 nM	100 to 1000 nM	1000 to 10000 nM	Cc1cn2cc(NC(=O)c3ccc(N4CCNC(C)C4)c4cc(C)oc34)cc(F)c2n1 (stereo not drawn) [Compound 190, N-{8-fluoro-2-methylimidazo[1,2-a]pyridin-6-yl}-2-methyl-4-(3-methylpiperazin-1-yl)-1-benzofuran-7-carboxamide]	1000 to 10000 nM	1000 to 10000 nM
100 to 1000 nM	< 100 nM	1000 to 10000 nM	Cc1cn2cc(NC(=O)c3ccc(N4CCN(C)C(C)C4)c4cc(C)oc34)cc(F)c2n1 (stereo not drawn) [Compound 191]	1000 to 10000 nM	100 to 1000 nM
1000 to 10000 nM	< 100 nM	> 10000 nM	Cc1cn2cc(NC(=O)c3ccc(N4CCNC(C)(C)C4)c4cc(C)oc34)cc(F)c2n1 [Compound 193]	1000 to 10000 nM	1000 to 10000 nM
1000 to 10000 nM	< 100 nM	> 10000 nM	Cc1cn2cc(NC(=O)c3ccc(N4CCNC5(CC5)C4)c4cc(C)oc34)cc(F)c2n1 [Compound 194]	1000 to 10000 nM	1000 to 10000 nM
1000 to 10000 nM	< 100 nM	1000 to 10000 nM	CCNC1CCN(c2ccc(C(=O)Nc3cc(F)c4nc(C)cn4c3)c3oc(C)cc23)CC1 [Compound 196, 4-[4-(ethylamino)piperidin-1-yl]-N-[8-fluoro-2-methylimidazo[1,2-a]pyridin-6-yl]-2-methyl-1-benzofuran-7-carboxamide]	1000 to 10000 nM	1000 to 10000 nM
> 10000 nM	100 to 1000 nM	> 10000 nM	Cc1cn2cc(NC(=O)c3ccc(N4CCC(NC(C)(C)C)CC4)c4cc(C)oc34)cc(F)c2n1 [Compound 197, 4-[4-(tert-butylamino)piperidin-1-yl]-N-[8-fluoro-2-methylimidazo[1,2-a]pyridin-6-yl]-2-methyl-1-benzofuran-7-carboxamide]	> 10000 nM	> 10000 nM
100 to 1000 nM	< 100 nM	1000 to 10000 nM	Cc1cn2cc(NC(=O)c3ccc(N4CCC(N(C)C)CC4)c4cc(C)oc34)cc(F)c2n1 [Compound 198, 4-[4-(dimethylamino)piperidin-1-yl]-N-[8-fluoro-2-methylimidazo[1,2-a]pyridin-6-yl]-2-methyl-1-benzofuran-7-carboxamide]	1000 to 10000 nM	100 to 1000 nM
100 to 1000 nM	< 100 nM	1000 to 10000 nM	Cc1cn2cc(NC(=O)c3ccc(N4CCN5CCCC5C4)c4cc(C)oc34)cc(F)c2n1 (stereo not drawn) [Compound 199, N-[8-fluoro-2-methylimidazo[1,2-a]pyridin-6-yl]-4-[hexahydro-1H-pyrrolo[1,2-a]pyrazin-2-yl]-2-methyl-1-benzofuran-7-carboxamide]	100 to 1000 nM	100 to 1000 nM
> 10000 nM	< 100 nM	> 10000 nM	Cc1cn2cc(NC(=O)c3ccc(N4CCC(N(C)C)C4)c4cc(C)oc34)cc(F)c2n1 (stereo not drawn) [Compound 202]	1000 to 10000 nM	> 10000 nM
1000 to 10000 nM	100 to 1000 nM	1000 to 10000 nM	Cc1cn2cc(NC(=O)c3ccc(N4CCC(NC(C)(C)C)C4)c4cc(C)oc34)cc(F)c2n1 (stereo not drawn) [Compound 203, 4-[3-(tert-butylamino)pyrrolidin-1-yl]-N-[8-fluoro-2-methylimidazo[1,2-a]pyridin-6-yl]-2-methyl-1-benzofuran-7-carboxamide]	1000 to 10000 nM	1000 to 10000 nM
1000 to 10000 nM	< 100 nM	1000 to 10000 nM	Cc1cn2cc(NC(=O)c3ccc(N4CCC(N5CCCC5)C4)c4cc(C)oc34)cc(F)c2n1 (stereo not drawn) [Compound 204, 4-[[1,3′-bipyrrolidin]-1′-yl]-N-[8-fluoro-2-methylimidazo[1,2-a]pyridin-6-yl]-2-methyl-1-benzofuran-7-carboxamide]	1000 to 10000 nM	1000 to 10000 nM
100 to 1000 nM	< 100 nM	1000 to 10000 nM	Cc1cn2cc(NC(=O)c3ccc(N4CC5(CNC5)C4)c4cc(C)oc34)cc(F)c2n1 [Compound 205]	1000 to 10000 nM	100 to 1000 nM
1000 to 10000 nM	< 100 nM	> 10000 nM	Cc1cn2cc(NC(=O)c3ccc(N4CC5(CN(C)C5)C4)c4cc(C)oc34)cc(F)c2n1 [Compound 206]	1000 to 10000 nM	1000 to 10000 nM
100 to 1000 nM	< 100 nM	1000 to 10000 nM	Cc1cn2cc(NC(=O)c3ccc(N4CCN(C)CC4)c4cn(C)nc34)cc(F)c2n1 [Compound 207]	100 to 1000 nM	100 to 1000 nM
100 to 1000 nM	< 100 nM	1000 to 10000 nM	Cc1cn2cc(NC(=O)c3ccc(C4CCNCC4)c4cn(C)nc34)cc(F)c2n1 [Compound 208, N-[8-fluoro-2-methylimidazo[1,2-a]pyridin-6-yl]-2-methyl-4-(piperidin-4-yl)indazole-7-carboxamide]	100 to 1000 nM	100 to 1000 nM

SMILES	IC50 (HTT CJ mRNA)	IC50 (SMN2 CJ mRNA)	IC50 (Target C CJ mRNA)	AC50 [1]	AC50 [2]
Cc1cn2cc(NC(=O)c3ccc(N(C)C4CCN(C)CC4)c4cc(C)oc34)cc(F)c2n1 [Compound 200]	1000 to 10000 nM	< 100 nM	1000 to 10000 nM	1000 to 10000 nM	1000 to 10000 nM
Cc1cn2cc(NC(=O)c3ccc(N(C)C4CC(C)(C)NC(C)(C)C4)c4cc(C)oc34)cc(F)c2n1 [Compound 201]	> 10000 nM	1000 to 10000 nM	> 10000 nM	> 10000 nM	> 10000 nM
